The source of these data is patent US20080027035A1, “Dpp-Iv Inhibitors” (GRAFFINITY PHARMACEUTICALS AG, priority 2003, published 2008).

pIC50: −log10 of the molar value.

This assay deals with T1, DPP-IV (Homo sapiens, UniProt P27487).
T1 construct: Soluble human DPP-IV lacking the transmembrane anchor (Gly31-Pro766); Pre-Pro-alpha-mating factor leader (secretion signal) (N, cleaved yes); made in house
T1 sequence (P27487 31-766): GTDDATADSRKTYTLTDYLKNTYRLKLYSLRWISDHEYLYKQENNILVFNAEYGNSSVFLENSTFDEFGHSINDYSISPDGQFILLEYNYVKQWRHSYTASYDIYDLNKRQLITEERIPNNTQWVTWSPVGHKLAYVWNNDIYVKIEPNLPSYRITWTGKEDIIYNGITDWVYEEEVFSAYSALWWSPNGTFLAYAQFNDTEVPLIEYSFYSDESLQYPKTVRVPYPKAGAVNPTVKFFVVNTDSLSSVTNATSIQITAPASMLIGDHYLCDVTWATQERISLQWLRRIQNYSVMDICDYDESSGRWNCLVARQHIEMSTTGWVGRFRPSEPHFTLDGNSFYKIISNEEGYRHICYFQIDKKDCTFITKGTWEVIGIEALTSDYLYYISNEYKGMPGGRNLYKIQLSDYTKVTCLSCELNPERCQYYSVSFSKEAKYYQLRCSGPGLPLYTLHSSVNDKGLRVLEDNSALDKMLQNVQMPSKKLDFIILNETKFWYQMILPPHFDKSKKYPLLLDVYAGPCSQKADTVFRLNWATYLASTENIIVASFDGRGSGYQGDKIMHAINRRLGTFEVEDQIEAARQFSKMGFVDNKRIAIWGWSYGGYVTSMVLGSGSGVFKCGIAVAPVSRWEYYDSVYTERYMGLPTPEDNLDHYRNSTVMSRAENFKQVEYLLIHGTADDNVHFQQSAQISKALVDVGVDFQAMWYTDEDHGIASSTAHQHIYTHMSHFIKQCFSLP
Nature of the assay: Inhibition of DPP-IV peptidase activity, continuous fluorimetric assay (Gly-Pro-AMC cleavage). The class given is biochemical. The conditions noted are these: 16 μM Gly-Pro-AMC, pH 7.4, 25° C., 1% DMSO. Here is the method: Inhibition of DPP-IV peptidase activity was monitored with a continuous fluorimetric assay. This assay is based on the cleavage of the substrate Gly-Pro-AMC (Bachem) by DPP-IV, releasing free AMC. The assay is carried out in 96-well microtiterplates. In a total volume of 100 μL, compounds are preincubated with […] employing a buffer containing 10 mM Hepes, 150 mM NaCl, 0.005% Tween 20 (pH 7.4). […] The final concentration of DMSO is 1%. The inhibitory potential of the compounds were determined.
Soluble human DPP-IV lacking the transmembrane anchor (Gly31-Pro766) was expressed in a recombinant YEAST-strain as Pre-Pro-alpha-mating fusion.
By pIC50 is commonly meant the IC50 on a negative log10 scale, so that one unit is a factor of ten. The low end stands for a large IC50, the high end for a small IC50. `N[C@@H](CC(=O)N1CCC[C@H]1CNc1nc(-c2cccc(F)c2)no1)Cc1ccccc1F` [Example 103, (3R)-Amino-4-(2-fluorophenyl)-1-((2S)-{[3-(3-fluorophenyl)-[1,2,4]oxadiazol-5-ylamino]-methyl}-pyrrolidin-1-yl)-butan-1-one] had a pIC50 of 5.70 to 6.00.
For `N#Cc1ccc(OC[C@@H]2CCCN2C(=O)C[C@H](N)Cc2ccccc2F)cc1` [Example 34] the value was above 7.00; for `N[C@@H](CC(=O)N1CCCC(CNC(=O)c2ccccc2)C1)Cc1ccccc1F` (mixture of isomers) [Example 94, N-{1-[(3R)-Amino-4-(2-fluoro-phenyl)-butyryl]-piperidin-3-ylmethyl}-benzamide], 6.00 to 7.00.
The compound `N[C@@H](CC(=O)N1CCCC(CO)C1)Cc1ccccc1F` (mixture of isomers) [Example 105, 3-Amino-4-(2-fluoro-phenyl)-1-(3-hydroxymethyl-piperidin-1-yl)-butan-1-one] had a pIC50 of 5.70 to 6.00.
For `N[C@@H](CC(=O)N1CCC[C@H]1CNC(=O)c1ccccc1)Cc1ccc(F)c(F)c1` [Example 50] the value was above 7.00.
For `N[C@@H](CC(=O)N1CCC[C@H]1CNc1nc(-c2cccc(Cl)c2)no1)Cc1ccccc1F` [Example 102] the value was above 7.00.
For `N[C@@H](CC(=O)N1CCC[C@H]1CNS(=O)(=O)c1ccccc1F)Cc1ccccc1F` [Example 83] the value was above 7.00; for `N[C@@H](CC(=O)N1CCC[C@H]1CNS(=O)(=O)c1cccc(F)c1)Cc1ccccc1F` [Example 79], above 7.00.
For the compound `N[C@@H](CC(=O)N1CCC[C@H]1CNc1nc(-c2ccccn2)no1)Cc1ccccc1F` [Example 101, (3R)-Amino-4-(2-fluorophenyl)-1-{(2 S)-[(3-pyridin-2-yl-[1,2,4]oxadiazol-5-ylamino)-methyl]-pyrrolidin-1-yl}-butan-1-one], the pIC50 was above 7.00.
`N[C@@H](CC(=O)N1CCC[C@H]1CNC(=O)c1cccnc1)Cc1ccccc1F` [Example 59] gave a pIC50 above 7.00.
On to `CS(=O)(=O)c1ccc(C(=O)NC[C@@H]2CCCN2C(=O)C[C@H](N)Cc2ccccc2F)cc1` [Example 61], for which the pIC50 is above 7.00.
For `N[C@@H](CC(=O)N1CCC[C@H]1CNc1nc(-c2ccccc2)no1)Cc1ccccc1F` [Example 100, (3R)-Amino-4-(2-fluorophenyl)-1-{(2S)-[(3-phenyl-[1,2,4]oxadiazol-5-ylamino)-methyl]-pyrrolidin-1-yl}butan-1-one] the value was 6.00 to 7.00.
For `N[C@@H](CC(=O)N1CCC[C@H]1CNC(=O)c1cccc(F)c1)Cc1ccccc1F` [Example 56] the value was above 7.00; for `N[C@@H](CC(=O)N1CC(COc2ccccc2)C1)Cc1ccccc1F` [Example 92, 3-Amino-4-(2-fluoro-phenyl)-1-(3-phenoxymethyl-azetidin-1-yl)-butan-1-one], 5.70 to 6.00.
For `N#Cc1ccc(NC[C@@H]2CCCN2C(=O)C[C@H](N)Cc2ccccc2F)nc1` [Example 68, 6-({1-[3-Amino-4-(2-fluoro-phenyl)-butyryl]-pyrrolidin-2-ylmethyl}-amino)-nicotinonitrile] the value was above 7.00.
In turn, `N[C@@H](CC(=O)N1CCC[C@H]1COc1cccc(F)c1)Cc1cccc(Cl)c1` [Example 41] showed a pIC50 above 7.00.
For `N[C@@H](CC(=O)N1CCC[C@H]1CNC(=O)c1ccccc1)Cc1cccc(F)c1` [Example 46] the value was above 7.00.
For `N#Cc1cccc(C[C@@H](N)CC(=O)N2CCC[C@H]2CNC(=O)c2ccccc2)c1` [Example 47] the value was 6.00 to 7.00.
For the compound `N[C@@H](CC(=O)N1CCC[C@H]1CNS(=O)(=O)c1ccc(F)cc1)Cc1ccccc1F` [Example 84], the negative logarithm of the IC50 (pIC50) is above 7.00.
In turn, `N[C@@H](CC(=O)N1CCC[C@H]1COc1ccccn1)Cc1ccccc1F` [Example 39] gave a pIC50 above 7.00.
For `CS(=O)(=O)c1ccc(-c2noc(NC[C@@H]3CCCN3C(=O)C[C@H](N)Cc3ccccc3F)n2)cc1` [Example 104, (3R)-Amino-4-(2-fluorophenyl)-1-((2S)-{[3-(4-methanesulphonylphenyl)-[1,2,4]oxadiazol-5-ylamino]-methyl}-pyrrolidin-1-yl)-butan-1-one] the value was above 7.00; for `N[C@@H](CC(=O)N1CCCC[C@H]1CNS(=O)(=O)c1ccccc1)Cc1ccccc1F` [Example 88, N-{1-[(3R)-Amino-4-(2-fluoro-phenyl)-butyryl]-piperidin-(2S)-ylmethyl}-benzenesulfonamide], 6.00 to 7.00.
In turn, `CS(=O)(=O)c1ccccc1C(=O)NC[C@@H]1CCCN1C(=O)C[C@H](N)Cc1ccccc1F` [Example 62] showed a pIC50 above 7.00.
For `N[C@@H](CC(=O)N1CCC[C@H]1COc1cccc(F)c1)Cc1ccccc1F` [Example 40], the pIC50 was above 7.00.
As to `N[C@@H](CC(=O)N1CCC[C@H]1CNc1cnccn1)Cc1ccccc1F` [Example 69], the pIC50 is 6.00 to 7.00.
For `N[C@@H](CC(=O)N1CC(CNS(=O)(=O)c2ccccc2)C1)Cc1ccccc1F` [Example 91, N-{1-[3-Amino-4-(2-fluoro-phenyl)-butyryl]-azetidin-3-ylmethyl}-benzenesulfonamide] the value was 6.00 to 7.00; for `N[C@@H](CC(=O)N1CCC[C@H]1COc1ccc(F)cc1)Cc1ccccc1F` [Example 38], above 7.00; for `N[C@@H](CC(=O)N1CCC[C@H]1CNc1ccccc1)Cc1ccccc1F` [Example 66, (3R)-Amino-4-(2-fluoro-phenyl)-1-[(2S)-phenylaminomethyl-pyrrolidin-1-yl]-butan-1-one], above 7.00.
For `N#Cc1ccccc1OC[C@@H]1CCCN1C(=O)C[C@H](N)Cc1ccccc1F` [Example 37] the value was above 7.00.
For `N[C@@H](CC(=O)N1CCCC[C@H]1CNC(=O)c1ccccc1)Cc1ccccc1F` [Example 87, N-{1-[(3R)-Amino-4-(2-fluoro-phenyl)-butyryl]-piperidin-(2S)-ylmethyl}-benzamide] the value was 6.00 to 7.00.
The compound `N[C@@H](CC(=O)N1CCC[C@H]1CNC(=O)c1ccccc1F)Cc1ccccc1F` [Example 55] had a pIC50 above 7.00.
For `CS(=O)(=O)NC[C@@H]1CCCN1C(=O)C[C@H](N)Cc1ccccc1F` [Example 85] the value was above 7.00.
For `N[C@@H](CC(=O)N1CCC[C@H]1CNC(=O)c1ccncc1)Cc1ccccc1F` [Example 60] the value was above 7.00; for `N[C@@H](CC(=O)N1CC(CNC(=O)c2ccccc2)C1)Cc1ccccc1F` [Example 90, N-{1-[(3R)-Amino-4-(2-fluoro-phenyl)-butyryl]-azetidin-3-ylmethyl}-benzamide], 6.00 to 7.00; for `N[C@@H](CC(=O)N1CCC[C@H]1CNC(=O)c1ccccc1)Cc1ccc(F)cc1` [Example 44], 6.00 to 7.00.
For `N[C@@H](CC(=O)N1CCC[C@H]1COCc1ccccc1)Cc1ccccc1F` [Example 32, (3R)-Amino-1-[(2S)-benzyloxymethyl-pyrrolidin-1-yl]-4-(2-fluoro-phenyl)-butan-1-one] the value was 6.00 to 7.00; for `N[C@@H](CC(=O)N1CCC[C@H]1CNS(=O)(=O)c1ccc(Cl)cc1)Cc1ccccc1F` [Example 81], above 7.00; for `N[C@@H](CC(=O)N1CCC[C@H]1CN1CCCC1)Cc1cccc(Cl)c1` [Example 67], 6.00 to 7.00.
`N[C@@H](CC(=O)N1CCC[C@H]1CNC(=O)c1ccc(F)cc1)Cc1ccccc1F` [Example 57] showed a negative logarithm of the IC50 (pIC50) above 7.00.
For `N[C@@H](CC(=O)N1CCC[C@H]1CNC(=O)Nc1ccccc1)Cc1ccccc1F` [Example 86, 1-{1-[(3R)-Amino-4-(2-fluoro-phenyl)-butyryl]-pyrrolidin-(2S)-ylmethyl}-3-phenyl-urea], the pIC50 is above 7.00.
For `COc1ccc(S(=O)(=O)NC[C@@H]2CCCN2C(=O)C[C@H](N)Cc2ccccc2F)cc1OC` [Example 78, N-{1-[3-Amino-4-(2-fluoro-phenyl)-butyryl]-pyrrolidin-2-ylmethyl}-3,4-dimethoxy-benzenesulfonamide] the value was above 7.00; for `COc1ccc(S(=O)(=O)NC[C@@H]2CCCN2C(=O)C[C@H](N)Cc2ccccc2F)cc1` [Example 80], above 7.00; for `COc1cccc(C(=O)NC[C@@H]2CCCN2C(=O)C[C@H](N)Cc2ccccc2F)c1` [Example 54, N-{1-[3-Amino-4-(2-fluoro-phenyl)-butyryl]-pyrrolidin-2-ylmethyl}-3-methoxy-benzamide], above 7.00.
For `N[C@@H](CC(=O)N1CCCC(CNS(=O)(=O)c2ccccc2)C1)Cc1ccccc1F` (stereo partly drawn) [Example 89, N-{1-[3-Amino-4-(2-fluoro-phenyl)-butyryl]-piperidin-3-ylmethyl}-benzenesulfonamide] the value was 6.00 to 7.00; for `N[C@@H](CC(=O)N1CCC[C@H]1COc1ccccc1)Cc1ccccc1F` [Example 35], above 7.00; for `N[C@@H](CC(=O)N1CC(COc2ccccn2)C1)Cc1ccccc1F` [Example 93], 5.70 to 6.00.
For `N#Cc1cccc(OC[C@@H]2CCCN2C(=O)C[C@H](N)Cc2ccccc2F)c1` [Example 36] the value was above 7.00.
Take `N[C@@H](CC(=O)N1CCC[C@H]1CNC(=O)c1ccccc1)Cc1ccccc1Cl` [Example 48]: the pIC50 was above 7.00.
For `COC[C@@H]1CCCN1C(=O)C[C@H](N)Cc1ccccc1F` [Example 33] the value was 6.00 to 7.00.
For `N[C@@H](CC(=O)N1CCC[C@H]1CNC(=O)c1ccccc1)Cc1ccccc1` [Example 49] the value was 6.00 to 7.00; for `N[C@@H](CC(=O)N1CCC[C@H]1CNS(=O)(=O)c1cc(Cl)ccc1Cl)Cc1ccccc1F` [Example 82], above 7.00.
